According to ChEMBL document CHEMBL4330126 (2019):
Activity calls are given as the source filed them. No cut-off for these calls is given here.

Key:
RAW264.7 [1] = experiment: Inhibition of LPS-stimulated NFkappaB/MAPK signaling activation in mouse RAW264.7 cells assessed as decrease in phosphorylated IKK protein level level after 24 hrs by Western blot analysis; format: cell-based
[2] = target: MAP kinase p38 (Mus musculus) (UniProt P47811+O08911+Q9WUI1+Q9Z1B7); experiment: Inhibition of LPS-induced p38 phosphorylation in mouse RAW264.7 cells at 0.5 x 10^-3 to 10^-3 M after 24 hrs by Western blot analysis; format: cell-based
RAW264.7 [3] = experiment: Anti-inflammatory activity in mouse RAW264.7 cells assessed as inhibition of LPS-induced IL-1beta mRNA expression at 10^-3 M after 24 hrs by qRT-PCR analysis; format: functional; conditions: RAW264.7, 24 h
RAW264.7 [4] = experiment: Anti-inflammatory activity in mouse RAW264.7 cells assessed as inhibition of LPS-induced iNOS level at 10^-3 M by Western blot analysis; format: functional, cell-based
[5] = target: Mitogen-activated protein kinase 1 and 3 (ERK2 and ERK1) (Mus musculus) (UniProt P63085+Q63844); experiment: Inhibition of LPS-induced ERK-1/2 phosphorylation in mouse RAW264.7 cells at 0.5 x 10^-3 to 10^-3 M after 24 hrs by Western blot analysis; format: cell-based
RAW264.7 [6] = experiment: Inhibition of LPS-stimulated NFkappaB/MAPK signaling activation in mouse RAW264.7 cells assessed as decrease in phosphorylated c-Jun protein level at 0.5 x 10^-3 to 10^-3 M after 24 hrs by Western blot analysis; format: cell-based
RAW264.7 [7] = experiment: Inhibition of LPS-induced JNK-phosphorylation in mouse RAW264.7 cells at 0.5 x 10^-3 to 10^-3 M after 24 hrs by Western blot analysis; format: cell-based
RAW264.7 [8] = experiment: Inhibition of LPS-stimulated NFkappaB/MAPK signaling activation in mouse RAW264.7 cells assessed as increase in IkappaB protein level after 24 hrs by Western blot analysis; format: cell-based
RAW264.7 [9] = experiment: Antiinflammatory activity in mouse RAW264.7 cells assessed as decrease in LPS-induced IL-1beta level at 10^-3 M by ELISA; format: functional; design: scale not given: the % may be the effect or the level left
RAW264.7 [10] = experiment: Inhibition of LPS-induced ROS generation in mouse RAW264.7 cells at 0.5 x 10^-3 to 10^-3 M after 24 hrs by DCFDA staining-based flow cytometric analysis; format: functional, cell-based
RAW264.7 [11] = experiment: Anti-inflammatory activity in mouse RAW264.7 cells assessed as inhibition of LPS-induced IL-6 mRNA expression at 10^-3 M after 24 hrs by qRT-PCR analysis; format: functional; conditions: RAW264.7, 24 h
RAW264.7 [12] = experiment: Antiinflammatory activity in mouse RAW264.7 cells assessed as decrease in LPS-induced TNF-alpha level at 10^-3 M by ELISA; format: functional; design: scale not given: the % may be the effect or the level left
RAW264.7 [13] = experiment: Inhibition of LPS-induced ROS generation in mouse RAW264.7 cells at 0.5 x 10^-3 to 10^-3 M after 24 hrs by DCFDA staining-based fluorescence microscopy; format: functional, cell-based
RAW264.7 [14] = experiment: Anti-inflammatory activity in mouse RAW264.7 cells assessed as inhibition of LPS-induced iNOS mRNA expression at 10^-3 M by qRT-PCR analysis; format: functional, cell-based
RAW264.7 [15] = experiment: Antiinflammatory activity in mouse RAW264.7 cells assessed as decrease in LPS-induced IL-6 level at 10^-3 M by ELISA; format: functional; design: scale not given: the % may be the effect or the level left
RAW264.7 [16] = experiment: Inhibition of LPS-induced morphological changes in mouse RAW264.7 cells at 0.5 x 10^-3 to 10^-3 M after 24 hrs by […] fluorescence microscopy; format: functional, cell-based
RAW264.7 [17] = experiment: Inhibition of LPS-stimulated NFkappaB/MAPK signaling activation in mouse RAW264.7 cells assessed as decrease in JunB protein level at 0.5 x 10^-3 to 10^-3 M after 24 hrs by Western blot analysis; format: cell-based
RAW264.7 [18] = experiment: Antiinflammatory activity against mouse RAW264.7 cells assessed as inhibition of LPS-induced nitric oxide production after 24 hrs by Griess assay; format: functional, cell-based
RAW264.7 [19] = experiment: Anti-inflammatory activity in mouse RAW264.7 cells assessed as inhibition of LPS-induced TNF-alpha mRNA expression at 10^-3 M after 24 hrs by qRT-PCR analysis; format: functional; conditions: RAW264.7, 24 h
RAW264.7 [20] = experiment: Anti-inflammatory activity in mouse RAW264.7 cells assessed as inhibition of LPS-induced IL-8 mRNA expression at 10^-3 M after 24 hrs by qRT-PCR analysis; format: functional; conditions: RAW264.7, 24 h
RAW264.7 [21] = experiment: Antiinflammatory activity in mouse RAW264.7 cells assessed as decrease in LPS-induced IL-8 level at 10^-3 M by ELISA; format: functional; design: scale not given: the % may be the effect or the level left

Mitogen-activated protein kinase 1 and 3 (ERK2 and ERK1) (Mus musculus), sequence (P63085 whole entry, looked up): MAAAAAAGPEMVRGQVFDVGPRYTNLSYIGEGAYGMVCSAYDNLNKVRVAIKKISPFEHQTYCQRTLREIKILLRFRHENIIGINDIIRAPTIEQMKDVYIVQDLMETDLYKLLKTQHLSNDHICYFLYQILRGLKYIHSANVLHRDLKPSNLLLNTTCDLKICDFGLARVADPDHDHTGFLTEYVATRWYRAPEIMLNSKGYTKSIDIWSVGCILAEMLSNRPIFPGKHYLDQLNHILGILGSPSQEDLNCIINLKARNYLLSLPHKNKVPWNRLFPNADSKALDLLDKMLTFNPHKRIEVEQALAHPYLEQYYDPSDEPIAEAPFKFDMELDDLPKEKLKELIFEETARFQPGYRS
Mitogen-activated protein kinase 1 and 3 (ERK2 and ERK1) (Mus musculus), sequence (Q63844 whole entry, looked up): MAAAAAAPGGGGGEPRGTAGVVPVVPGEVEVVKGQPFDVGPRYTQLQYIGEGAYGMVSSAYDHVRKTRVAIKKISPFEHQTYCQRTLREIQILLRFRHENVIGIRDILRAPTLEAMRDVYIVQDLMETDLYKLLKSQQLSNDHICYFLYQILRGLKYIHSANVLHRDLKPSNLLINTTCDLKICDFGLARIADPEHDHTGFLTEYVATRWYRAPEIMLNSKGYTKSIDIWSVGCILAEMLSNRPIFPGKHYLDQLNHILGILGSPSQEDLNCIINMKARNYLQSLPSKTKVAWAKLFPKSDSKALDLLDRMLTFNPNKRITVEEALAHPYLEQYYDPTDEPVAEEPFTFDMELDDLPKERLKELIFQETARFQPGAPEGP

**Q.** With `CC1(C)[C@@H](O[C@H]2O[C@H](C(=O)[O-])[C@@H](O)[C@H](O)[C@H]2O[C@@H]2O[C@H](C(=O)[O-])[C@@H](O)[C@H](O)[C@H]2O)CC[C@]2(C)[C@H]3C(=O)C=C4[C@@H]5C[C@@](C)(C(=O)O)CC[C@]5(C)CC[C@@]4(C)[C@]3(C)CC[C@@H]12.O.O.O.O.[Mg+2]` as the molecule, how does the inhibition (RAW264.7 [1]) read?
**A.** Dose-dependent effect

**Q.** What about the inhibition [2] of the same molecule?
**A.** Active

**Q.** What about the inhibition at 1000 µM (RAW264.7 [3]) of the same molecule?
**A.** 61.7%

**Q.** And the inhibition (RAW264.7 [4])?
**A.** Active

**Q.** And the inhibition [5]?
**A.** Active

**Q.** And the inhibition (RAW264.7 [6])?
**A.** Active

**Q.** What about the inhibition (RAW264.7 [7]) of the same molecule?
**A.** Active

**Q.** And the inhibition (RAW264.7 [8])?
**A.** Dose-dependent effect

**Q.** What about the Activity (RAW264.7 [9]) of the same molecule?
**A.** 33.6%

**Q.** And the inhibition (RAW264.7 [10])?
**A.** Active

**Q.** What about the inhibition at 1000 µM (RAW264.7 [11]) of the same molecule?
**A.** 46.2%

**Q.** What about the Activity (RAW264.7 [12]) of the same molecule?
**A.** 17.3%

**Q.** What about the inhibition (RAW264.7 [13]) of the same molecule?
**A.** Active

**Q.** What about the inhibition (RAW264.7 [14]) of the same molecule?
**A.** Active

**Q.** What about the Activity (RAW264.7 [15]) of the same molecule?
**A.** 28.7%

**Q.** And the inhibition (RAW264.7 [16])?
**A.** Active

**Q.** And the inhibition (RAW264.7 [17])?
**A.** Active

**Q.** And the inhibition (RAW264.7 [18])?
**A.** Dose-dependent effect

**Q.** What about the inhibition at 1000 µM (RAW264.7 [19]) of the same molecule?
**A.** 48.6%

**Q.** And the inhibition at 1000 µM (RAW264.7 [20])?
**A.** 88.4%

**Q.** What about the Activity (RAW264.7 [21]) of the same molecule?
**A.** 49.3%
